ChEMBL document CHEMBL1156118, “Evaluation of substituted 6-arylquinazolin-4-amines as potent and selective inhibitors of cdc2-like kinases (Clk)” (Bioorg Med Chem Lett, 2009)

Tests used:
[1] = molecular target: T1, Dual specificity protein kinase CLK4 (Homo sapiens, UniProt Q9HAZ1); assay: Inhibition of Clk4
[2] = molecular target: Dual specificity protein kinase CLK1 (Homo sapiens, UniProt P49759); assay: Binding affinity to Clk1 assessed as dissociation constant
[3] = molecular target: Epidermal growth factor receptor (Homo sapiens, UniProt P00533); assay: Binding affinity to EGFR assessed as dissociation constant
[4] = molecular target: Dual specificity protein kinase CLK3 (Homo sapiens, UniProt P49761); assay: Binding affinity to Clk3 assessed as dissociation constant
[5] = molecular target: T1, Dual specificity protein kinase CLK4; assay: Binding affinity to Clk4 assessed as dissociation constant
[6] = molecular target: Dual specificity tyrosine-phosphorylation-regulated kinase 1A (Homo sapiens, UniProt Q13627); assay: Binding affinity to Dyrk1A assessed as dissociation constant
[7] = molecular target: Dual specificity protein kinase CLK2 (Homo sapiens, UniProt P49760); assay: Binding affinity to Clk2 assessed as dissociation constant
[8] = molecular target: Dual specificity tyrosine-phosphorylation-regulated kinase 1B (Homo sapiens, UniProt Q9Y463); assay: Binding affinity to Dyrk1B assessed as dissociation constant
Chain of Dual specificity tyrosine-phosphorylation-regulated kinase 1B (Q9Y463 whole entry): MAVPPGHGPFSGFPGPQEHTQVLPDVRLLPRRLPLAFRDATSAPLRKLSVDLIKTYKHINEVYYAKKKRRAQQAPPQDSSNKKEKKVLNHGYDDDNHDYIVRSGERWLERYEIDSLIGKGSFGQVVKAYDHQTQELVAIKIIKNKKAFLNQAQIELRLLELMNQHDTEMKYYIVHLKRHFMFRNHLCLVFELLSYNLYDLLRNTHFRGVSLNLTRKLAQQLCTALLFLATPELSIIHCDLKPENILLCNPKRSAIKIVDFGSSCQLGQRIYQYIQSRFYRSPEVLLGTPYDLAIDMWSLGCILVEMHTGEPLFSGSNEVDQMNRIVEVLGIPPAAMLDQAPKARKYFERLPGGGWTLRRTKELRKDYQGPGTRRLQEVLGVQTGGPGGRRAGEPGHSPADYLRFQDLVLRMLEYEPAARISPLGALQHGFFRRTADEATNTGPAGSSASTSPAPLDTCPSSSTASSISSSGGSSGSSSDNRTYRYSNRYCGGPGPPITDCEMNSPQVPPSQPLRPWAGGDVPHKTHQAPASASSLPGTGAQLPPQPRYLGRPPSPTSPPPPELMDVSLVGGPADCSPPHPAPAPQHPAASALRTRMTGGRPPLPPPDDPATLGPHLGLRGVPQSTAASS

T1 sequence (Q9HAZ1 whole entry): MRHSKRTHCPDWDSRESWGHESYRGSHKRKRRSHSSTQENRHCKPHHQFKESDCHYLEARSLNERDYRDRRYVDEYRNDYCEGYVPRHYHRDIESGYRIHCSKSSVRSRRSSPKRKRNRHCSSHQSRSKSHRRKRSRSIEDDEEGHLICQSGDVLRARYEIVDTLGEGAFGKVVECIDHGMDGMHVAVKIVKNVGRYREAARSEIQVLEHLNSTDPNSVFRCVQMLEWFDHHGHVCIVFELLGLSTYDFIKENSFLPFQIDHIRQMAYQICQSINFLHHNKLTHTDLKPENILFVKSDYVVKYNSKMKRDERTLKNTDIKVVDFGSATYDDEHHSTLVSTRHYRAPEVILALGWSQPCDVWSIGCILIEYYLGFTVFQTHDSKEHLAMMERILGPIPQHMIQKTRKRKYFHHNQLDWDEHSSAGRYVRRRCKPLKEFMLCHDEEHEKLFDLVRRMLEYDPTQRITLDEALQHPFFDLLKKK
Chain of Epidermal growth factor receptor (P00533 whole entry): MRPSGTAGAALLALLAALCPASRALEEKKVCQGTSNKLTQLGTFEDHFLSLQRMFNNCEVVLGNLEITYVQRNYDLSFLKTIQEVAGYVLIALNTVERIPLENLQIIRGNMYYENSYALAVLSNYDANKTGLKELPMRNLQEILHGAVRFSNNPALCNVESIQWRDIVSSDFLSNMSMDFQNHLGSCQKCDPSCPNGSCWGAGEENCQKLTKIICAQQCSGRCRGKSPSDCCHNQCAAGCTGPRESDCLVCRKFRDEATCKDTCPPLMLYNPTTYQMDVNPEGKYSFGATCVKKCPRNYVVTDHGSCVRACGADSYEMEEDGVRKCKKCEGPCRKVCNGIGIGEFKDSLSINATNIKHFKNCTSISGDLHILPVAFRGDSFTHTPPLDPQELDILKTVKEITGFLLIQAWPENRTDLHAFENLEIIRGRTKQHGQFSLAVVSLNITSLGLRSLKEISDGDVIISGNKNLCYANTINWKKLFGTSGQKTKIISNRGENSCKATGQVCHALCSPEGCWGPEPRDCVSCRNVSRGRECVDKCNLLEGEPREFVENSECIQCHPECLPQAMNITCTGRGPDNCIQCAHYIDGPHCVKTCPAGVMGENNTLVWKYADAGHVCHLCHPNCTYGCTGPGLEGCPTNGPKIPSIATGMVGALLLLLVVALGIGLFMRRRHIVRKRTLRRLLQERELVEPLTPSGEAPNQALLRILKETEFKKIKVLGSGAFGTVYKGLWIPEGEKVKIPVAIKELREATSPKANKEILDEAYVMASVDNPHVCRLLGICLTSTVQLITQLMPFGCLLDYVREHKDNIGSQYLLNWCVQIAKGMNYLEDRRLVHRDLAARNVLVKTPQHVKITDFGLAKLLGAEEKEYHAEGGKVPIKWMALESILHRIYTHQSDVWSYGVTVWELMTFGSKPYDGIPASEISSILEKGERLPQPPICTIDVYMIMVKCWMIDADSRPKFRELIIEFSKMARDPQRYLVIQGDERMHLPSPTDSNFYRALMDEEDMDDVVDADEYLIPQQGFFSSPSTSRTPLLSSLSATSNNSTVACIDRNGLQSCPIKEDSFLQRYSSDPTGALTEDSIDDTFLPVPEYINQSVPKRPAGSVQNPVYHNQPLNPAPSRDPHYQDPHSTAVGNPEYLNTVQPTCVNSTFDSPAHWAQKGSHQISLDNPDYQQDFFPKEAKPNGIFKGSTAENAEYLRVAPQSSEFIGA
Chain of Dual specificity protein kinase CLK2 (P49760 whole entry): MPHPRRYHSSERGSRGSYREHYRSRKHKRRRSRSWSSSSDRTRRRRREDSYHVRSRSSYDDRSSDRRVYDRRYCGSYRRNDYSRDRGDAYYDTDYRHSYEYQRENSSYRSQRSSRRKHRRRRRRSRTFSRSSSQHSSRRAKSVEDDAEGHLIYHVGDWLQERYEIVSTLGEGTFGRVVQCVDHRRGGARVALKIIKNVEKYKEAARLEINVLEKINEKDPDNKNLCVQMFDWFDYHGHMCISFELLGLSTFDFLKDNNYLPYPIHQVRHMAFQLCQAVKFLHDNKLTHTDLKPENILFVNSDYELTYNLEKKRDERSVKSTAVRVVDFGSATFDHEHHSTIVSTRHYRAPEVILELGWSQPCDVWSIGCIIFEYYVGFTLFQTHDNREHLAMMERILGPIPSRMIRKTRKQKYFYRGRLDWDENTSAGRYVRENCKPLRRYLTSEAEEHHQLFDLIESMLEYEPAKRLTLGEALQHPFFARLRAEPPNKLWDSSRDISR
Chain of Dual specificity protein kinase CLK1 (P49759 whole entry): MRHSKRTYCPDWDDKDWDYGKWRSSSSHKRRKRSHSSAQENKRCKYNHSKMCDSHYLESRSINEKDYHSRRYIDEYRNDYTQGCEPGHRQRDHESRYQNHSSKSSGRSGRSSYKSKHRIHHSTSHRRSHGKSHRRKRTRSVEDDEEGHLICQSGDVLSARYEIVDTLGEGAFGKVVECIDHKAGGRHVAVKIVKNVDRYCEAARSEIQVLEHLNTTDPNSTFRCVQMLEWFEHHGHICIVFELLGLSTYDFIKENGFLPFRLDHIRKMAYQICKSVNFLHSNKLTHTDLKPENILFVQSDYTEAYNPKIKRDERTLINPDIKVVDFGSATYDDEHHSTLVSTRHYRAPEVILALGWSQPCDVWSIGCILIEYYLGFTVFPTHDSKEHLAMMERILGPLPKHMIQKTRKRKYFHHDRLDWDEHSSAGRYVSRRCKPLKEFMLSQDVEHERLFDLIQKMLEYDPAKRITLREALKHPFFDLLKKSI
Chain of Dual specificity protein kinase CLK3 (P49761 whole entry): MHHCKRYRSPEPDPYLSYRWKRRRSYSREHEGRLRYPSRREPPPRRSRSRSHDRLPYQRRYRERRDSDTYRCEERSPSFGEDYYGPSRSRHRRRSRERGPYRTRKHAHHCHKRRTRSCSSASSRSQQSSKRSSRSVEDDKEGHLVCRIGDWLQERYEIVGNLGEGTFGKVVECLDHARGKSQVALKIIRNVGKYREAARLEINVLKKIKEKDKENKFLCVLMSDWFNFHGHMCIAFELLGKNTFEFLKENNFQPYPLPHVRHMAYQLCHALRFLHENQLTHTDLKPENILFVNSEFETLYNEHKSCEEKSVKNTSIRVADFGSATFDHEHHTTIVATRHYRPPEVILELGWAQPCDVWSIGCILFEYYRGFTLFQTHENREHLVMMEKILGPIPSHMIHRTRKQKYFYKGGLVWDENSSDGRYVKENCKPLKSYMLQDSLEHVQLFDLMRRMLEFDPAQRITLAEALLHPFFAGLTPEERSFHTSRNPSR

Compound	IC50 [1] [µM]	other results
COc1cccc(-c2ccc3ncnc(NCc4cccs4)c3c2)c1	0.891	
Cc1cccc(CNc2ncnc3ccc(-c4ccc5c(c4)OCO5)cc23)c1	0.126	
Cc1csc(CNc2ncnc3ccc(-c4ccc5c(c4)OCO5)cc23)c1	0.178	
c1coc(-c2ccc3ncnc(NCc4cccs4)c3c2)c1	0.25	
Cc1cccc(CNc2ncnc3ccc(-c4ccc5c(c4)OCCO5)cc23)c1	0.631	
Cc1noc(C)c1-c1ccc2ncnc(NCc3cccc(F)c3)c2c1	0.178	
COc1cccc(-c2ccc3ncnc(NCc4cccc(C)c4)c3c2)c1	1.12	
COc1cccc(-c2ccc3ncnc(NCc4cc(C)cs4)c3c2)c1	1	
c1cncc(CNc2ncnc3ccc(-c4ccc5c(c4)OCO5)cc23)c1	0.1	
Fc1cccc(CNc2ncnc3ccc(-c4ccc5c(c4)OCO5)cc23)c1	0.126	
COc1cccc(-c2ccc3ncnc(NCc4cccnc4)c3c2)c1	3.55	
c1nc(NCc2ccoc2)c2cc(-c3ccc4c(c3)OCO4)ccc2n1	0.063	
Fc1cccc(CNc2ncnc3ccc(-c4ccco4)cc23)c1	0.141	
c1csc(CNc2ncnc3ccc(-c4ccc5c(c4)OCO5)cc23)c1	0.063	Kd [2]: 0.037 µM; Kd [3]: 0.23 µM; Kd [4]: 0.47 µM; Kd [5]: 0.05 µM; Kd [6]: 0.027 µM; Kd [7]: 0.68 µM; Kd [8]: 0.43 µM
c1cncc(CNc2ncnc3ccc(-c4ccco4)cc23)c1	0.794	
COc1cccc(-c2ccc3ncnc(NCc4cccc(F)c4)c3c2)c1	0.708	
Cc1noc(C)c1-c1ccc2ncnc(NCc3cccs3)c2c1	0.158	
c1cncc(CNc2ncnc3ccc(-c4ccc5c(c4)OCCO5)cc23)c1	0.447	
Cc1csc(CNc2ncnc3ccc(-c4ccc5c(c4)OCCO5)cc23)c1	0.501	
Cc1cccc(CNc2ncnc3ccc(-c4ccco4)cc23)c1	0.224	
c1coc(-c2ccc3ncnc(NCc4ccoc4)c3c2)c1	0.111	
COc1cccc(-c2ccc3ncnc(NCc4ccoc4)c3c2)c1	1	
Cc1csc(CNc2ncnc3ccc(-c4c(C)noc4C)cc23)c1	0.501	
